Measurements: ChEMBL document CHEMBL3877282, “Synthesis and structure-activity studies of side chain analogues of the anti-tubercular agent, Q203” (Eur J Med Chem, 2017)
In brackets after ≈: the same amount, converted by molar mass.

Assays:
[1] = test system: Mycobacterium tuberculosis; assay: Antimycobacterial activity against GFP-fused Mycobacterium tuberculosis H37Rv in liquid broth culture medium; type: functional
[2] = test system: Mycobacterium tuberculosis; assay: Antimycobacterial activity against GFP-fused Mycobacterium tuberculosis H37Rv infected in macrophages; type: functional
[3] = Half life in mouse at 2 mg/kg, iv; type: ADME, organism-based; settings: in vivo
[4] = Clearance in mouse at 2 mg/kg, iv; type: ADME, organism-based; settings: in vivo
[5] = Volume of distribution at steady state in mouse at 2 mg/kg, iv; type: ADME, organism-based; settings: in vivo, read-out: Vdss
[6] = Cmax in mouse at 10 mg/kg, po; type: ADME, organism-based; parameters: dose 10 mg/kg, route oral; settings: in vivo
[7] = Half life in mouse at 10 mg/kg, po; type: ADME, organism-based; settings: in vivo
[8] = Tmax in mouse at 10 mg/kg, po; type: ADME, organism-based; settings: in vivo
[9] = AUC (0 to infinity) in mouse at 10 mg/kg, po; type: ADME, organism-based; parameters: dose 10 mg/kg, route oral, time infinity; settings: in vivo
[10] = Oral bioavailability in mouse at 10 mg/kg; type: ADME, organism-based; settings: in vivo

In the case of `CCc1nc2cc(Cl)ccn2c1C(=O)NCc1ccc(Oc2ccc(OC(F)(F)F)cc2)cc1`, the MIC80 [1] is reported as 0.064 µM (≈ 0.0314 µg/mL) and the MIC80 [2] is reported as 0.027 µM (≈ 0.0132 µg/mL).

With `CCc1nc2cc(Cl)ccn2c1C(=O)NCc1ccc(Nc2ccc(OC(F)(F)F)cc2)cc1` the MIC80 [1] was 0.839 µM (≈ 0.41 µg/mL).

Compound `CCc1nc2cc(Cl)ccn2c1C(=O)NCc1ccc(NCc2ccc(OC(F)(F)F)cc2)cc1` has an MIC80 [1] of 0.25 µM (≈ 0.126 µg/mL).

Work on `CCc1nc2ccc(F)cn2c1C(=O)NCc1ccc(OCc2ccc(OC(F)(F)F)cc2)cc1` yielded an MIC80 [1] of 0.084 µM (≈ 0.0409 µg/mL), an MIC80 [2] of 0.028 µM (≈ 0.0136 µg/mL) and a half-life [3] of 11 h. For the same compound, the clearance [4] was 4.76 mL/min/kg, the Vd [5] was 3.85 L/kg and the Cmax [6] was 2620 ng/mL. For the same compound, the half-life [7] was 11.4 h, the Tmax [8] was 1 h and the AUC(0-inf) [9] was 28200 ng·h/mL. The bioavailability [10] was 80.5%.

In the case of `CCc1nc2ccc(Cl)cn2c1C(=O)NCc1ccc(N2CCC(Oc3ccc(OC(F)(F)F)cc3)CC2)cc1`, the MIC80 [1] is reported as 0.007 µM (≈ 0.00401 µg/mL).

Work on `CCc1nc2ccc(Cl)cn2c1C(=O)NCc1ccc(N2CCN(C(=O)c3ccc(F)cc3)CC2)cc1` yielded an MIC80 [1] of 0.534 µM (≈ 0.278 µg/mL).

Compound `CCc1nc2ccc(Br)cn2c1C(=O)NCc1ccc(OCc2ccc(OC(F)(F)F)cc2)cc1` has an MIC80 [1] of 0.432 µM (≈ 0.237 µg/mL).

`CCc1nc2ccc(Cl)cn2c1C(=O)NCc1ccc(N2CCC(Oc3ccc(F)cc3)CC2)cc1` gave an MIC80 [1] of 0.01 µM (≈ 0.00507 µg/mL).

For `CCc1nc2ccc(Cl)cn2c1C(=O)NCc1ccc(N2CCN(Cc3ccc(OC(F)(F)F)cc3)CC2)cc1`, the MIC80 [1] was 0.015 µM (≈ 0.00858 µg/mL) and the MIC80 [2] was 0.082 µM (≈ 0.0469 µg/mL).

Compound `CCc1nc2ccc(Cl)cn2c1C(=O)NCc1ccc(N2CCC(Oc3ccc(Cl)cc3)C2)cc1` (single isomer, unassigned; 40) has an MIC80 [1] of 0.006 µM (≈ 0.00306 µg/mL).

Work on `CCc1nc2ccc(Cl)cn2c1C(=O)NCc1ccc(OCc2ccc(OC(F)(F)F)cc2)cc1` yielded an MIC80 [1] of 0.015 µM (≈ 0.00756 µg/mL).

Compound `CCc1nc2ccc(Cl)cn2c1C(=O)NCc1ccc(N2CCN(C(=O)Cc3ccc(F)cc3)CC2)cc1` has an MIC80 [1] of 0.373 µM (≈ 0.199 µg/mL).

For `NNC(=O)c1ccncc1` [ISONIAZID], the MIC80 [1] was 0.49 µM (≈ 0.0672 µg/mL) and the MIC80 [2] was 0.2 µM (≈ 0.0274 µg/mL).

With `CCc1nc2cc(Cl)ccn2c1C(=O)NCc1ccc(N2CCC(Oc3ccc(OC(F)(F)F)cc3)CC2)cc1` the MIC80 [1] was 0.021 µM (≈ 0.012 µg/mL).

Work on `CCc1nc2cc(Cl)ccn2c1C(=O)NCc1ccc(OCc2ccc(F)cc2)cc1` yielded an MIC80 [1] of 0.02 µM (≈ 0.00876 µg/mL).

For `CCc1nc2ccc(Cl)cn2c1C(=O)NCc1ccc(N2CCC(COc3ccc(OC(F)(F)F)cc3)CC2)cc1`, the MIC80 [1] was 0.037 µM (≈ 0.0217 µg/mL).

In the case of `CCc1nc2ccccn2c1C(=O)NCc1ccc(OCc2ccc(OC(F)(F)F)cc2)cc1`, the MIC80 [1] is reported as 0.027 µM (≈ 0.0127 µg/mL).

Work on `CCc1nc2cc(Cl)ccn2c1C(=O)NCc1ccc(OCc2ccc(OC(F)(F)F)cc2)cc1` yielded an MIC80 [1] of 0.015 µM (≈ 0.00756 µg/mL), an MIC80 [2] of less than 0.001 µM and a half-life [3] of 13.9 h. For the same compound, the clearance [4] was 5.77 mL/min/kg, the Vd [5] was 4.68 L/kg and the Cmax [6] was 1640 ng/mL. The half-life [7] was 11.9 h, the Tmax [8] was 0.5 h and the AUC(0-inf) [9] was 11500 ng·h/mL. It also gave a bioavailability [10] of 53.4%.

Compound `CCc1nc2ccc(Cl)cn2c1C(=O)NCc1ccc(N2CCC(Oc3ccc(Cl)cc3)C2)cc1` (single isomer, unassigned; 41) has an MIC80 [1] of 0.014 µM (≈ 0.00713 µg/mL).

For `CCc1nc2cc(Cl)ccn2c1C(=O)NCc1ccc(N(C)c2ccc(OC(F)(F)F)cc2)cc1`, the MIC80 [1] was 0.04 µM (≈ 0.0201 µg/mL) and the MIC80 [2] was 0.023 µM (≈ 0.0116 µg/mL).

Compound `CCc1nc2ccc(Cl)cn2c1C(=O)NCc1ccc(N2CCC(Oc3ccc(Cl)cc3)CC2)cc1` has an MIC80 [1] of 0.003 µM (≈ 0.00157 µg/mL), an MIC80 [2] of less than 0.001 µM and a half-life [3] of 14.1 h. The clearance [4] was 2.83 mL/min/kg, the Vd [5] was 1.34 L/kg and the Cmax [6] was 3540 ng/mL. The half-life [7] was 18.9 h, the Tmax [8] was 2 h and the AUC(0-inf) [9] was 30300 ng·h/mL. It also gave a bioavailability [10] of 51.4%.

Compound `CCc1nc2cc(Cl)ccn2c1C(=O)NCc1ccc(N2CCC(Cc3ccccc3)CC2)cc1` has an MIC80 [1] of 0.022 µM (≈ 0.0107 µg/mL).

With `CCc1nc2ccc(Cl)cn2c1C(=O)NCc1ccc(N2CCC(Oc3ccc(C(F)(F)F)cc3)CC2)cc1` the MIC80 [1] was 0.026 µM (≈ 0.0145 µg/mL), the MIC80 [2] was 0.009 µM (≈ 0.00501 µg/mL) and the half-life [3] was 19.6 h. The clearance [4] was 2.23 mL/min/kg, the Vd [5] was 2.39 L/kg and the Cmax [6] was 4100 ng/mL. It also gave a half-life [7] of 20 h, a Tmax [8] of 2 h and an AUC(0-inf) [9] of 48900 ng·h/mL. It also gave a bioavailability [10] of 65.6%.
